Data from patent US20110244496A1, “HIV REVERSE TRANSCRIPTASE COMPOSITIONS AND METHODS” (priority 2007, published 2011).
pEC50: −log10 of the molar value. Like-named read-outs stand apart in the source and are kept apart here.

Tests used:
[1] = target: T1, Leu100Ile/Lys103Asn double mutant RT (Human immunodeficiency virus type 1 group M subtype B, UniProt P03366, K702N/L699I); test: EC50 of TMC278 against L100I/K103N double mutant; format: cell-based, HIV-1; conditions: Example 4 (Table 1, not given)
T1 construct: RT is a heterodimer consisting of a p66 and p51 subunit

[2] = target: T2, Lys103Asn/Tyr181Cys double mutant RT (Human immunodeficiency virus type 1 group M subtype B, UniProt P03366, K702N/Y780C); test: EC50 of TMC278 against K103N/Y181C double mutant; format: cell-based, HIV-1; conditions: Example 4
T2 construct: RT is a heterodimer consisting of a p66 and p51 subunit

K103N RT mutant = target: T3, K103N RT mutant (Human immunodeficiency virus type 1 group M subtype B, UniProt P03366, K702N); test: EC50 of TMC278 against K103N mutant; format: cell-based, HIV-1; conditions: Example 4
T3 construct: RT is a heterodimer consisting of a p66 and p51 subunit

Y181C RT mutant = target: T4, Y181C RT mutant (Human immunodeficiency virus type 1 group M subtype B, UniProt P03366, Y780C); test: EC50 of TMC278 against Y181C mutant; format: cell-based, HIV-1; conditions: Example 4
T4 construct: RT is a heterodimer consisting of a p66 and p51 subunit

wild-type RT = target: T5, wild-type RT (Human immunodeficiency virus type 1 group M subtype B, UniProt P03366); conditions: cited from earlier work
T5 construct: RT is a heterodimer consisting of a p66 and p51 subunit

[3] = target: T1, Leu100Ile/Lys103Asn double mutant RT; conditions: cited from earlier work
[4] = target: T2, Lys103Asn/Tyr181Cys double mutant RT; conditions: cited from earlier work
HIV-1 = conditions: antiretroviral naïve patients; once daily 25, 50, 100, or 150 mg for seven days; day 8 versus before initial dosage; Goebel et al., 2006; cited from earlier work
[5] = patients given TMC278 once daily for seven days; Goebel et al., 2006; cited from earlier work
[6] = Goebel et al., 2006, cited from earlier work

rilpivirine [TMC278]
pEC50 [1]: ~8.10 | pEC50 [2]: > 9.00 | pEC50 (K103N RT mutant): > 9.00 | pEC50 (Y181C RT mutant): > 9.00 | pEC50 (wild-type RT; Example 2, read-out: EC50 (the 50% effective concentration)): 9.40 | pEC50 (wild-type RT; de Bethune et al. online poster 2005, read-out: EC50): 9.29 | pEC50 ([3]; L100I and K103N (RT51A mutations), de Bethune et al. online poster 2005, read-out: EC50): 8.57 | pEC50 ([3]; double mutant Leu100Ile/Lys103Asn, Example 2, read-out: EC50 (the 50% effective concentration)): 8.15 | pEC50 ([4]; K103N and Y181C (RT55A mutations), de Bethune et al. online poster 2005): 8.77 | pEC50 ([4]; Lys103Asn/Tyr181Cys double mutant, Guillemont et al., 2005, Janssen et al): 9.00 | average decrease of HIV-1 RNA viral load (HIV-1): 1.199 log10 copies/ml | headaches reported, patients [5]: 14% | plasma concentrations of TMC278 ([6]; at any of the time points tested, target concentration 13.5 ng/ml): ≥ 13.5 ng/mL | Bioavailability ([6]; patients, once daily dosage): excellent
